Measured values reported in patent publication US20180092908A1, “SMALL MOLECULE OXIDIZERS OF PDI AND THEIR USE” (THE TRUSTEES OF COLUMBIA UNIVERSITY IN THE CITY OF NEW YORK, priority 2015, published 2018).
Read-outs that look alike come from different tables or passages of the source.

Assays:
[1] = Single-dose pharmacokinetic study (BBB penetration); type: in vivo; details: single-dose 20 mg/kg, intravenously or orally, mice
Description: LOC14 administered via (FIG. 17A) intravenous or (FIG. 17B) oral route to wild-type C57BL/6j mice at 20 mg/kg. The concentration of compound in the brain tissue and plasma is shown for each individual mouse (represented by dots). The horizontal lines represent the mean±SD (n=3).
Showing promising in vitro metabolic properties, LOC14 was tested in a single-dose pharmacokinetic (PK) study. This was a pilot study to evaluate the ability of LOC14 to traverse the blood-brain barrier (BBB). In this study, LOC14 was administered via two routes, intravenously (FIG. 17A) or orally (FIG. 17B), at a single-dose of 20 mg/kg to wild-type C57BL/6j mice.

[2] = molecular target: T1, human catalytic PDI A1 a domain (PDIa) (Homo sapiens, UniProt P07237); experiment: Isothermal titration calorimetry (ITC) binding to PDIa
T1 construct: made in house; host or cells: Escherichia coli BL21-Gold (DE3)
T1 sequence (P07237 with tags, fused parts or gaps): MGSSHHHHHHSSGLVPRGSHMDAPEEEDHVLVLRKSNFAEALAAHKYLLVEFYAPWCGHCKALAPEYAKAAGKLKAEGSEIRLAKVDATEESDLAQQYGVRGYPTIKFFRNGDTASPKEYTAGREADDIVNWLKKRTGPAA

[3] = molecular target: T2, recombinant catalytic a domain of human PDI A1 (PDIa) (Homo sapiens, UniProt P07237); experiment: Insulin aggregation assay (PDIa reductase activity); type: biochemical
T2 construct: made in house; host or cells: Escherichia coli BL21-Gold (DE3)
T2 sequence (P07237 with tags, fused parts or gaps): as above

[4] = Mouse plasma protein binding assay; type: in vitro ADME; details: mouse; plasma, compound 2000 ng/mL, mean±SD (n=3)
Description: A test compound at the concentration of 2000 ng/mL in plasma was added into the sample chamber, and a dialysis buffer phosphate-buffered saline (PBS) was added into the buffer chamber, covering the unit with sealing tape and incubating for 4 hours at 37° C. at approximately 100 rpm on an orbital shaker. The incubation samples were taken from both plasma and buffer chamber at the end of the incubation, and then samples were analyzed by LC-MS/MS. Protein binding and free fraction percentage were determined using peak area ratio of analyte to internal standard. Fraction bound percent was calculated as: % Bound=100*(Cplasma−CPBS)/Cplasma. The fraction recovered percent was calculated as: % Recovery=(VPBS*CPBS+Vplasma*Cplasma)/(Vplasma*Cspike) where VPBS is Volume of PBS, Vplasma is Volume of Plasma, CPBS is Drug concentration in PBS (Analyte/IS peak area ratio), Cplasma is Drug concentration in plasma (Analyte/IS peak area ratio), Cspike is Drug concentration in spiked plasma (Analyte/IS peak area ratio).

O=C(C1CC1)N1CCN(Cn2sc3ccccc3c2=O)CC1 [LOC14, 2-((4-(cyclopropanecarbonyl)piperazin-1-yl)methyl)benzo[d]isothiazol-3(2H)-one]
blood-brain barrier penetration [1]: penetrated the BBB
tolerability [1]: well tolerated
binding affinity to PDIa with 16F16 pre-treatment ([2]; 40 μM PDIa pre-treated overnight with 200 μM 16F16): reduced
Kd ([2]; PDIa, Table 5, read-out: ITC Assay KD): 113 nM
Kd ([2]; reduced PDIa 40 μM, compound 400 μM, 25° C., read-out: dissociation constant (Kd)): 61.7 ± 5.6 nM
inhibition of PDIa enzymatic activity ([3]; compound 75 μM, PDIa 5 μM): almost completely inhibit
inhibition of PDI's reduction of insulin without dilution ([3]; compound 750 μM): able to inhibit
recovery at 4 h, 2000 ng/mL [4]: 113.8 ± 0.76%
